{"source": "patent US6441027B1", "about": "“Method of regulating the female reproductive system through angiogenesis inhibitors” (Children's Medical Center Corporation, priority 1996, dated 2002)", "key": {"[1]": {"system": "female C57BL/6 mice", "type": "in vivo, mouse", "protocol": "Group housed female C57BL/6 mice were treated with a single injection of AGM-1470 (30 mg/kg, s.c.) and paired with male breeders at various times after treatment. Treatment groups are designated as the number of days between plugging and treatment. The 6 control groups are combined and expressed as the mean±SD. The number of matings in per group is listed below each labeled group.\nThe experiment was designed to detect how long before mating a single dose of AGM-1470 might be effective. Sexually mature female mice were treated with a single dose of AGM-1470 (30 mg/kg, s.c.) up to five days prior to mating [designated E(−5), E(−4), E(−3), E(−2), E(−1), or E0 with the date of plugging being E0]. For treatments on E(−5) through E(−1), group-housed female mice were injected with AGM-1470 and then individually paired with male breeders at varying times after injection. For E0 treatment, females were paired with males and then plugged females were injected. Pregnancies were monitored by maternal weights and allowed to go to term. The contraceptive efficacy of a single dose of AGM-1470 on each of these days, calculated by the percentage of matings resulting in any viable deliveries […]. The contraceptive efficacy of a single dose of AGM-1470 on each of these days, expressed as the percentage of matings resulting in viable deliveries is illustrated in FIG. 8."}, "[2]": {"system": "gravid uteri", "assay": "Gravid uterine weight after single dose", "type": "in vivo, mouse", "text": "(§1) C57BL/6 male and female mice greater than seven weeks old were obtained from Takonic (Germantown, N.Y.). The mice were acclimated for at least five days prior to mating and housed in a twelve hour on and twelve hour off light schedule. The mice were mated in the evenings and vaginal plugs were checked for the next morning. Mating in mice is normally detected by the occurrence of vaginal plugs, which are formed by a mixture of the secretions of the vesicular and coagulating glands of the male and usually fill the vagina from cervix to vulva. The day of plugging was labeled Embryonic day 0 (E0). All animal studies were conducted according to the protocols approved by the Animal Ethics Committee of Children's Hospital. Plugged female mice were randomized and received either AGM-1470 30 mg/kg s.c. or saline on E1, 7, or 14. The dependence of female reproductive system on angiogenesis was examined by treating sexually mature inseminated and cycling mice with selective angiogenesis inhibitor AGM-1470.\nGravid uteri and ovaries were resected enbloc and weighed. Gravid uterine weight (grams wet weight, mean SE, n=3/day) in the control group increased exponentially from E6 (0.20±0.01), to E9 (0.53±0.05), E13 (3.78±0.36), and E18 (12.87±0.62). Gravid uterine weights from mice treated with AGM-1470 on E1 had no weight increase after E9 [E6 (0.29±0.01), E9 (0.63±0.01), E13 (0.72±0.08, p<0.05), and E18 (0.68±0.02, p<0.05)]. Gravid uterine weights from mice treated with AGM-1470 on E7 increased initially but then regresses after E13 [E9 (0.71±0.01), E13 (2.03±0.14, p<0.05), and E18 (1.08±0.06, p<0.05)]."}, "[3]": {"system": "plugged mice", "assay": "Reversibility: remating after fetal resorption", "type": "in vivo, mouse", "details": "30 mg/kg on E1 (n=3) or E7 (n=3), remated six weeks after E18 laparotomy", "protocol": "To establish long-term safety, the course of recovery of the reproductive system after fetal resorption was studied. Six plugged mice were injected with 30 mg/kg AGM-1470 on E1 (n=3) or E7 (n=3) and then anesthetized on E18 in a methoxyflurane (Pittman-Moore, Mandelein, Ill.) chamber so that a laparotomy could be performed. The uteri were inspected to confirm the presence of resorption cites. The incisions were closed with a running 3-0 ethelon™ black monofilament nylon suture (Ethicon, Somerville; N.J.). Animals were observed until fully recovered. After an additional six weeks the mice were remated to determine their ability to become inseminated and deliver a normal litter. […] Therefore, there is a functional recovery of the uterus after AGM-1470 treatment on E1 or E7."}, "[4]": {"system": "non-pregnant cycling mice", "assay": "Cycling mice, chronic treatment: estrous cycle and mating", "type": "in vivo, mouse", "text": "Female mice were housed individually in cages and acclimated for one week. The stage of the estrous cycles was checked by visual inspection of the vagina according to the criteria of Champlin^28 and the examiner was blinded to the treatment group. Determining the stage of the estrous cycle in the mouse by the appearance of the vagina. Animals were monitored daily and graded for color, size of opening, striations and swelling. Based on these observations each individual was assigned to a cycle stage (diestrus, proestrus, estrus, or metestrus).\n(§2) Mice were randomized and received either AGM-1470 30 mg/kg s.c. or saline 0.1 ml s.c. every other day for 16 days (approximately four estrous cycles). On the last of four days of treatment mice were housed with male mice to see if successful mating and conception would occur. On day 16 mice were weighed and sacrificed by cervical dislocation. The ovaries were resected enbloc, fixed in Carnoy's fixative, and embedded in paraffin according to standard histologic techniques. Sections were cut at 6 microns and stained with hematoxylin and eosin."}, "[5]": {"system": "corpora lutea", "assay": "Cycling mice, chronic treatment: examination of the ovaries", "type": "in vivo, mouse", "details": "30 mg/kg every other day for 16 days", "protocol": "as §2"}, "[6]": {"system": "inseminated C57BL/6 mice", "type": "in vivo, mouse", "text": "as §1\nMice were sacrificed on either E6, 9, 13 or 18 (one day prior to term gestation). Fetal viability was assessed and statistical analysis was performed with a Fisher's Exact Test."}, "[7]": {"system": "VEGF induced neovascularization", "assay": "Mouse corneal micropocket model, VEGF pellet", "type": "in vivo", "details": "mouse cornea, n=10/group, p<0.001", "protocol": "To confirm that angiogenesis was being inhibited, AGM-1470 was tested in vivo. A mouse corneal micropocket model was used which was recently developed to model tumor angiogenesis. Pellets of bFGF or VEGF were implanted in the mouse cornea resulting in aggressive neovascularization. AGM-1470 inhibited the amount of bFGF or VEGF induced neovascularization by 47% or 62% respectively (n=10/group p<0.001)."}}, "note": "Entries after “also recorded” stand apart in the source; their conditions may differ. Like-named read-outs stand apart in the source and are kept apart here.", "data": [{"smiles": "CO[C@@H]1[C@H](OC(=O)NC(=O)CCl)CC[C@]2(CO2)[C@H]1[C@@]1(C)O[C@@H]1CC=C(C)C", "note": "[AGM-1470, O-chloroacetylcarbamoyl fumagillol]", "values": [{"measurement": "effect on live births", "setting": "[1]; single dose 30 mg/kg s.c. on E0", "value": "completely block live births"}, {"measurement": "effect on live births", "setting": "[1]; single dose 30 mg/kg s.c. on E(-1)", "value": "completely block live births"}, {"measurement": "reduction of percentage of animals with successful pregnancies", "setting": "[1]; single dose 30 mg/kg s.c. on E(-2)", "value": 80, "unit": "%"}, {"measurement": "frequency of litters", "setting": "[1]; single dose 30 mg/kg s.c. three to five days prior to mating", "value": "same frequency as controls"}, {"measurement": "number of dead births relative to controls", "setting": "[1]; single dose 30 mg/kg s.c., any time point E(-5) to E0", "value": "No differences"}, {"measurement": "percentage of mated animals with viable births", "setting": "[1]; single dose 30 mg/kg s.c., treatments on E0, E-1 and E-2 (FIG. 8)", "value": "inhibition of viable births"}, {"measurement": "gravid uterine weight", "setting": "[2]; treated on E1, weighed E6, n=3", "value": "0.29±0.01", "unit": "grams wet weight"}, {"measurement": "gravid uterine weight", "setting": "[2]; treated on E1, weighed E9, n=3", "value": "0.63±0.01", "unit": "grams wet weight"}, {"measurement": "gravid uterine weight", "setting": "[2]; treated on E1, weighed E13, n=3", "value": "0.72±0.08", "unit": "grams wet weight"}, {"measurement": "gravid uterine weight", "setting": "[2]; treated on E1, weighed E18, n=3", "value": "0.68±0.02", "unit": "grams wet weight"}, {"measurement": "gravid uterine weight", "setting": "[2]; treated on E7, weighed E9, n=3", "value": "0.71±0.01", "unit": "grams wet weight"}, {"measurement": "gravid uterine weight", "setting": "[2]; treated on E7, weighed E13, n=3", "value": "2.03±0.14", "unit": "grams wet weight"}, {"measurement": "gravid uterine weight", "setting": "[2]; treated on E7, weighed E18, n=3", "value": "1.08±0.06", "unit": "grams wet weight"}, {"measurement": "litters after remating", "setting": "[3]", "value": "normal litters in all mice"}, {"measurement": "first occurrence of abnormal (closed, red, dry) vaginal morphology", "setting": "[4]; 30 mg/kg s.c. every other day", "value": "5.6±3.2 days of treatment"}, {"measurement": "mice with new vaginal morphology within 10 days of start of treatment", "setting": "[4]; 30 mg/kg s.c. every other day", "value": "8 of 8"}, {"measurement": "effect on estrous cycle", "setting": "[4]; 30 mg/kg s.c. every other day for 16 days", "value": "interruption of the normal estrous cycle"}, {"measurement": "time to full recovery after drug was discontinued", "setting": "[4]; chronic high dose, sexually mature cycling mice", "value": 7, "unit": "weeks"}, {"measurement": "successful mating (plugging)", "setting": "[4]; housed with males on last four days of 16 day treatment", "value": "no visually evident plugging"}, {"measurement": "corpora lutea smaller than control", "setting": "[5]", "value": 61, "unit": "%"}, {"measurement": "number of corpora lutea", "setting": "[5]; vs control", "value": "fewer; also recorded: decreased size and number of corpora lutea"}, {"measurement": "toxicity to the pregnant mothers", "setting": "[6]; 30 mg/kg single dose", "value": "no signs of toxicity"}, {"measurement": "birth defects", "setting": "[6]; drug given to pregnant mice during pregnancy", "value": "birth defects were not documented"}, {"measurement": "fetal resorption on E18", "setting": "[6]; single dose 30 mg/kg s.c. on E1 (pre-implantation), n=69 embryos", "value": 100, "unit": "%"}, {"measurement": "fetal resorption on E18", "setting": "[6]; single dose 30 mg/kg s.c. on E7 (post-implantation), n=36", "value": 100, "unit": "%"}, {"measurement": "litters", "setting": "[6]; single dose 30 mg/kg s.c. on E14, n=46", "value": "normal litters"}, {"measurement": "inhibition of VEGF induced neovascularization", "setting": "[7]", "value": 62, "unit": "%"}]}]}
